Laboratory results taken from the supplement of paper PMC8671470.
± gives the standard deviation of the averaged measurements.

What was measured:
Conditions in all cases: 72 h
Mono-Mac-6 [1] = assay: cell viability (% survival relative to DMSO control, bortezomib = 0%); higher = less cytotoxic
Summary of the method: (§1)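 Fifteen myeloid leukaemia cell lines were exposed to compounds at 1, 10, 100, 1000 or 10000 nM in 384-well plates for 72 h at 37 °C and 5% CO2. Viability was read by CellTiter-Glo luminescence and normalised, with vehicle as 100% and a 10 µM positive control as 0%. Values are percent survival averaged over duplicates.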

BV-173 [2] = assay: as above
Summary of the method: as §1

HEL [3] = assay: as above
Summary of the method: as §1

THP-1 [4] = assay: as above
Summary of the method: as §1

SHI-1 [5] = assay: as above
Summary of the method: as §1

K-562 [6] = assay: as above
Summary of the method: as §1

KU-812 [7] = assay: as above
Summary of the method: as §1

HL-60 [8] = assay: as above
Summary of the method: as §1

NOMO-1 [9] = assay: as above
Summary of the method: as §1

ML-2 [10] = assay: as above
Summary of the method: as §1

MV4-11 [11] = assay: as above
Summary of the method: as §1

LAMA-84 [12] = assay: as above
Summary of the method: as §1

HL-60 [13] = assay: cell viability (% survival relative to DMSO control); higher = less cytotoxic
Summary of the method: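 HL-60 cells grown in RPMI 1640 with 10% FBS were rescreened against the full library in 384-well plates, in duplicate, at five tenfold concentrations from 1 to 10,000 nM, alongside DMSO or 100 nM of one of three metabolic inhibitors for 72 h at 37 °C, 5% CO2. Reference wells contained DMSO or 10 μM proteasome inhibitor. Viability was read with CellTiter-Glo and normalised to these reference wells, and where reported, area under the curve was taken from four-parameter log-logistic fits in drc and PharmacoGx.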

Mono-Mac-6 [14] = tested on: Mono-Mac-6
Summary of the method: (§2)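 Dose–response data were fitted with a four-parameter log-logistic model. They came from fifteen myeloid leukaemia lines treated in duplicate with five tenfold doses from 1 to 10,000 nM for 72 h at 37 °C with 5% CO2, with ATP viability normalised to vehicle and to a positive control at 10 µM. The IC50 was derived from these fits.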

BV-173 [15] = tested on: BV-173
Summary of the method: as §2

HEL [16] = tested on: HEL
Summary of the method: as §2

THP-1 [17] = tested on: THP-1
Summary of the method: as §2

SHI-1 [18] = tested on: SHI-1
Summary of the method: as §2

KCL-22 = tested on: KCL-22
Summary of the method: as §2

K-562 [19] = tested on: K-562
Summary of the method: as §2

KU-812 [20] = tested on: KU-812
Summary of the method: as §2

MOLM-13 = tested on: MOLM-13
Summary of the method: as §2

HL-60 [21] = tested on: HL-60
Summary of the method: as §2

KG-1 = tested on: KG-1
Summary of the method: as §2

NOMO-1 [22] = tested on: NOMO-1
Summary of the method: as §2

ML-2 [23] = tested on: ML-2
Summary of the method: as §2

MV4-11 [24] = tested on: MV4-11
Summary of the method: as §2

LAMA-84 [25] = tested on: LAMA-84
Summary of the method: as §2

O=C(O)C[C@@]1(O)C[C@@H](CCCCCCc2ccc(Cl)cc2Cl)OC1=O
cell viability [%]
Conditions	1 nM	10 nM	100 nM	1000 nM	10000 nM
BV-173 [2]	102	101	97.8	96.3	96.4
HEL [3]	110	118	99.2	89.2	95.6
HL-60 [8]	97.1	123	100	89.3	99.8
K-562 [6]	103	93.6	105	102	96.8
KU-812 [7]	92.2	99.9	96	98.7	92.4
LAMA-84 [12]	99.6	99.8	92.7	97.3	96.7
ML-2 [10]	103	116	106	105	106
MV4-11 [11]	95.3	86.1	90.5	102	98.4
Mono-Mac-6 [1]	96.3	111	102	92.8	96.3
NOMO-1 [9]	101	103	97.4	98.8	99.5
SHI-1 [5]	99.7	124	98.4	102	96.4
THP-1 [4]	103	97	103	99.7	90.3

cell viability [%], HL-60 [13]
Conditions	0.001 µM	0.01 µM	0.1 µM	1 µM	10 µM
co-treatment: AZD3965 100 nM	104 ± 2.9	104 ± 2.1	100 ± 4.4	98.7 ± 1.1	95.4 ± 7.3
co-treatment: DMSO vehicle	102 ± 1.9	105 ± 3.1	97.05 ± 0.83	103 ± 1.1	99.13 ± 0.47
co-treatment: GSK2194069 100 nM	108 ± 6.6	108 ± 9.2	95.77 ± 0.87	99.5 ± 4.9	93.44 ± 0.53
co-treatment: pictilisib 100 nM	107 ± 3	109.5 ± 0.28	92.03 ± 0.35	103 ± 1.8	99.5 ± 1.9

Conditions	IC50 (cell viability) [µM]
BV-173 [15]	> 10
HEL [16]	> 10
HL-60 [21]	> 10
K-562 [19]	> 10
KCL-22	> 10
KG-1	> 10
KU-812 [20]	> 10
LAMA-84 [25]	> 10
ML-2 [23]	> 10
MOLM-13	> 10
MV4-11 [24]	> 10
Mono-Mac-6 [14]	> 10
NOMO-1 [22]	> 10
SHI-1 [18]	> 10
THP-1 [17]	> 10

O=C(NCCCCCCNC(=O)ONC1=CCCCC1)ONC1=CCCCC1
cell viability [%]
Conditions	1 nM	10 nM	100 nM	1000 nM	10000 nM
BV-173 [2]	89.4	107	114	110	95.2
HEL [3]	90.8	104	117	113	90.9
HL-60 [8]	106	107	124	111	93.8
K-562 [6]	97.9	120	116	101	89.5
KU-812 [7]	104	110	113	101	92.4
LAMA-84 [12]	104	103	112	101	103
ML-2 [10]	94.8	107	108	107	99.1
MV4-11 [11]	91.1	104	106	100	96.3
Mono-Mac-6 [1]	90.6	110	103	98.8	102
NOMO-1 [9]	98.9	117	112	112	102
SHI-1 [5]	98.7	103	112	112	97.3
THP-1 [4]	89.4	114	109	97.4	100

cell viability [%], HL-60 [13]
Conditions	0.001 µM	0.01 µM	0.1 µM	1 µM	10 µM
co-treatment: AZD3965 100 nM	99.5 ± 1.2	99 ± 1.3	99.3 ± 1	100.9 ± 0.23	98.9 ± 0.37
co-treatment: DMSO vehicle	97 ± 1.2	99.2 ± 2.3	96.8 ± 1.2	102 ± 1.3	97.3 ± 2.2
co-treatment: GSK2194069 100 nM	99.1 ± 7.2	101 ± 3	70.1 ± 47	87.3 ± 32	105 ± 10
co-treatment: pictilisib 100 nM	105 ± 11	102 ± 1.8	104 ± 4.3	95 ± 25	86.2 ± 13

Conditions	IC50 (cell viability) [µM]
BV-173 [15]	> 10
HEL [16]	> 10
HL-60 [21]	> 10
K-562 [19]	> 10
KCL-22	> 10
KG-1	> 10
KU-812 [20]	> 10
LAMA-84 [25]	> 10
ML-2 [23]	> 10
MOLM-13	> 10
MV4-11 [24]	> 10
Mono-Mac-6 [14]	> 10
NOMO-1 [22]	> 10
SHI-1 [18]	> 10
THP-1 [17]	> 10

O=C(C1CC1)N1CC[C@@H](C=C2NNC(=O)N2c2ccc(-c3ccc4occc4c3)cc2)C1
cell viability [%]
Conditions	1 nM	10 nM	100 nM	1000 nM	10000 nM
BV-173 [2]	97.1	86.3	82.4	79	63.7
HEL [3]	106	90.5	107	101	78.5
HL-60 [8]	101	66.7	48.4	35	38.1
K-562 [6]	95.4	78.1	73	79	54.4
KU-812 [7]	99.8	94.8	99.9	102	67.1
LAMA-84 [12]	98.5	97.5	88.7	82.8	72.4
ML-2 [10]	101	98.4	107	97.8	88.4
MV4-11 [11]	88.1	95.7	81	84	59.9
Mono-Mac-6 [1]	94.7	91.2	90	88	64.9
NOMO-1 [9]	98.1	98.6	107	99.4	89.9
SHI-1 [5]	90.4	99.4	108	94.7	79.6
THP-1 [4]	98.7	93.3	104	103	101

cell viability [%], HL-60 [13]
Conditions	0.001 µM	0.01 µM	0.1 µM	1 µM	10 µM
co-treatment: AZD3965 100 nM	101 ± 1.3	104 ± 5.5	81.6 ± 8.7	76.9 ± 0.96	68.9 ± 1.8
co-treatment: DMSO vehicle	101 ± 2.7	105 ± 2.8	95.1 ± 3.5	92 ± 7.1	85.8 ± 5.1
co-treatment: GSK2194069 100 nM	96.3 ± 1.3	103.6 ± 0.49	92 ± 2.8	86.9 ± 1	82.4 ± 3.5
co-treatment: pictilisib 100 nM	97.7 ± 10	104 ± 7.5	92.53 ± 0.68	76.6 ± 8.2	73.1 ± 6.3

Conditions	IC50 (cell viability) [µM]
BV-173 [15]	> 10
HEL [16]	> 10
HL-60 [21]	0.0437
K-562 [19]	> 10
KCL-22	9.06
KG-1	> 10
KU-812 [20]	> 10
LAMA-84 [25]	> 10
ML-2 [23]	> 10
MOLM-13	1.47
MV4-11 [24]	> 10
Mono-Mac-6 [14]	> 10
NOMO-1 [22]	> 10
SHI-1 [18]	> 10
THP-1 [17]	> 10
